Test results taken from PubChem BioAssay (NCI).
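Values below derive from 48-hour exposures of cells grown in 96-well plates, with endpoints linearly interpolated between the two concentrations bracketing the appropriate inhibition level. TGI denotes the concentration required for complete inhibition of growth.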

Legend:
Assay in all cases: growth of human tumour cells (NCI), 48 h
HCC-2998 colon = tested on: HCC-2998 colon
A549 NSCLC = tested on: A549 NSCLC
HOP-92 NSCLC = tested on: HOP-92 NSCLC
RPMI-8226 leukemia = tested on: RPMI-8226 leukemia
SNB-75 CNS = tested on: SNB-75 CNS
SN12C renal = tested on: SN12C renal
SK-MEL-28 melanoma = tested on: SK-MEL-28 melanoma
MDA-MB-231 breast = tested on: MDA-MB-231 breast
OVCAR-4 ovarian = tested on: OVCAR-4 ovarian
LOX IMVI melanoma = tested on: LOX IMVI melanoma
OVCAR-5 ovarian = tested on: OVCAR-5 ovarian
NCI-H226 lung = tested on: NCI-H226 lung
MCF7 breast = tested on: MCF7 breast
CAKI-1 renal = tested on: CAKI-1 renal
HT29 colon = tested on: HT29 colon
T-47D breast = tested on: T-47D breast
SF-539 CNS = tested on: SF-539 CNS
SK-OV-3 ovarian = tested on: SK-OV-3 ovarian
OVCAR-8 ovarian = tested on: OVCAR-8 ovarian
KM12 colon = tested on: KM12 colon
NCI-H522 lung = tested on: NCI-H522 lung
NCI/ADR-RES ovarian = tested on: NCI/ADR-RES ovarian
TK-10 renal = tested on: TK-10 renal
RXF 393 renal = tested on: RXF 393 renal
NCI-H23 lung = tested on: NCI-H23 lung
OVCAR-3 ovarian = tested on: OVCAR-3 ovarian
HCT-116 colon = tested on: HCT-116 colon
MALME-3M melanoma = tested on: MALME-3M melanoma
EKVX NSCLC = tested on: EKVX NSCLC
SK-MEL-2 melanoma = tested on: SK-MEL-2 melanoma
NCI-H460 lung = tested on: NCI-H460 lung
PC-3 prostate = tested on: PC-3 prostate
SW-620 colon = tested on: SW-620 colon
U251 CNS = tested on: U251 CNS
SF-295 CNS = tested on: SF-295 CNS
K-562 leukemia = tested on: K-562 leukemia
ACHN renal = tested on: ACHN renal
786-0 renal = tested on: 786-0 renal
SK-MEL-5 melanoma = tested on: SK-MEL-5 melanoma
UO-31 renal = tested on: UO-31 renal
SNB-19 CNS = tested on: SNB-19 CNS
M14 melanoma = tested on: M14 melanoma
BT-549 breast = tested on: BT-549 breast
HOP-62 NSCLC = tested on: HOP-62 NSCLC
IGROV1 ovarian = tested on: IGROV1 ovarian
COLO 205 colon = tested on: COLO 205 colon
MDA-N = tested on: MDA-N
UACC-257 melanoma = tested on: UACC-257 melanoma
HCT-15 colon = tested on: HCT-15 colon
A498 renal = tested on: A498 renal
MDA-MB-435 = tested on: MDA-MB-435
HS 578T breast = tested on: HS 578T breast
SF-268 CNS = tested on: SF-268 CNS
UACC-62 melanoma = tested on: UACC-62 melanoma
MOLT-4 leukemia = tested on: MOLT-4 leukemia
HL-60(TB) leukemia = tested on: HL-60(TB) leukemia
DU-145 prostate = tested on: DU-145 prostate
CCRF-CEM leukemia = tested on: CCRF-CEM leukemia

Question: Which results are given for `Cc1ccc(Nc2[nH]c(=O)[nH]c(=O)c2C)cc1Cl`?
Answer: TGI (HCC-2998 colon): > 100 µM; TGI (A549 NSCLC): > 100 µM; TGI (HOP-92 NSCLC): > 100 µM; TGI (RPMI-8226 leukemia): > 100 µM; TGI (SNB-75 CNS): > 100 µM; TGI (SN12C renal): > 100 µM; TGI (SK-MEL-28 melanoma): > 100 µM; TGI (MDA-MB-231 breast): > 100 µM; TGI (OVCAR-4 ovarian): > 100 µM; TGI (LOX IMVI melanoma): > 100 µM; TGI (OVCAR-5 ovarian): > 100 µM; TGI (NCI-H226 lung): > 100 µM; TGI (MCF7 breast): 59.7 µM; TGI (CAKI-1 renal): > 100 µM; TGI (HT29 colon): > 100 µM; TGI (T-47D breast): > 100 µM; TGI (SF-539 CNS): > 100 µM; TGI (SK-OV-3 ovarian): > 100 µM; TGI (OVCAR-8 ovarian): > 100 µM; TGI (KM12 colon): > 100 µM; TGI (NCI-H522 lung): > 100 µM; TGI (NCI/ADR-RES ovarian): > 100 µM; TGI (TK-10 renal): > 100 µM; TGI (RXF 393 renal): > 100 µM; TGI (NCI-H23 lung): > 100 µM; TGI (OVCAR-3 ovarian): > 100 µM; TGI (HCT-116 colon): > 100 µM; TGI (MALME-3M melanoma): > 100 µM; TGI (EKVX NSCLC): > 100 µM; TGI (SK-MEL-2 melanoma): > 100 µM; TGI (NCI-H460 lung): > 100 µM; TGI (PC-3 prostate): > 100 µM; TGI (SW-620 colon): > 100 µM; TGI (U251 CNS): > 100 µM; TGI (SF-295 CNS): 72.3 µM; TGI (K-562 leukemia): > 100 µM; TGI (ACHN renal): > 100 µM; TGI (786-0 renal): > 100 µM; TGI (SK-MEL-5 melanoma): > 100 µM; TGI (UO-31 renal): > 100 µM; TGI (SNB-19 CNS): > 100 µM; TGI (M14 melanoma): > 100 µM; TGI (BT-549 breast): > 100 µM; TGI (HOP-62 NSCLC): > 100 µM; TGI (IGROV1 ovarian): > 100 µM; TGI (COLO 205 colon): > 100 µM; TGI (MDA-N): > 100 µM; TGI (UACC-257 melanoma): > 100 µM; TGI (HCT-15 colon): > 100 µM; TGI (A498 renal): > 100 µM; TGI (MDA-MB-435): > 100 µM; TGI (HS 578T breast): > 100 µM; TGI (SF-268 CNS): > 100 µM; TGI (UACC-62 melanoma): > 100 µM

Question: For `Cc1nc2c(cc1C(=O)N/N=C/c1ccc([N+](=O)[O-])cc1)c(=O)n(C)c(=O)n2C`, which TGI (HCC-2998 colon) is on record?
Answer: The TGI was over 100 µM.

Question: What about the TGI (A549 NSCLC) of the same compound?
Answer: The TGI was over 100 µM.

Question: What about the TGI (RPMI-8226 leukemia) of the same compound?
Answer: Its TGI is over 100 µM.

Question: What about the TGI (SNB-75 CNS) of the same compound?
Answer: The TGI was over 100 µM.

Question: And the TGI (SN12C renal)?
Answer: The TGI was over 100 µM.

Question: And the TGI (SK-MEL-28 melanoma)?
Answer: Its TGI is over 100 µM.

Question: What about the TGI (MOLT-4 leukemia) of the same compound?
Answer: Its TGI is over 100 µM.

Question: What about the TGI (MDA-MB-231 breast) of the same compound?
Answer: Its TGI is 65.7 µM.

Question: And the TGI (OVCAR-4 ovarian)?
Answer: Its TGI is over 100 µM.

Question: And the TGI (OVCAR-5 ovarian)?
Answer: Its TGI is over 100 µM.

Question: And the TGI (NCI-H226 lung)?
Answer: Its TGI is over 100 µM.

Question: What about the TGI (MCF7 breast) of the same compound?
Answer: Its TGI is over 100 µM.

Question: What about the TGI (HL-60(TB) leukemia) of the same compound?
Answer: Its TGI is over 100 µM.

Question: And the TGI (CAKI-1 renal)?
Answer: The TGI was over 100 µM.

Question: What about the TGI (HT29 colon) of the same compound?
Answer: The TGI was over 100 µM.

Question: What about the TGI (T-47D breast) of the same compound?
Answer: Its TGI is over 100 µM.

Question: What about the TGI (DU-145 prostate) of the same compound?
Answer: The TGI was over 100 µM.

Question: And the TGI (SK-OV-3 ovarian)?
Answer: The TGI was over 100 µM.

Question: And the TGI (OVCAR-8 ovarian)?
Answer: The TGI was over 100 µM.

Question: What about the TGI (KM12 colon) of the same compound?
Answer: Its TGI is over 100 µM.

Question: What about the TGI (NCI/ADR-RES ovarian) of the same compound?
Answer: Its TGI is over 100 µM.

Question: And the TGI (TK-10 renal)?
Answer: The TGI was over 100 µM.

Question: What about the TGI (RXF 393 renal) of the same compound?
Answer: The TGI was 65 µM.

Question: What about the TGI (NCI-H23 lung) of the same compound?
Answer: Its TGI is over 100 µM.

Question: And the TGI (OVCAR-3 ovarian)?
Answer: The TGI was over 100 µM.

Question: What about the TGI (HCT-116 colon) of the same compound?
Answer: The TGI was over 100 µM.

Question: What about the TGI (MALME-3M melanoma) of the same compound?
Answer: The TGI was over 100 µM.

Question: What about the TGI (EKVX NSCLC) of the same compound?
Answer: Its TGI is over 100 µM.

Question: And the TGI (SK-MEL-2 melanoma)?
Answer: The TGI was over 100 µM.

Question: What about the TGI (NCI-H460 lung) of the same compound?
Answer: The TGI was over 100 µM.

Question: What about the TGI (PC-3 prostate) of the same compound?
Answer: Its TGI is over 100 µM.

Question: What about the TGI (SW-620 colon) of the same compound?
Answer: Its TGI is over 100 µM.

Question: And the TGI (CCRF-CEM leukemia)?
Answer: Its TGI is over 100 µM.

Question: What about the TGI (U251 CNS) of the same compound?
Answer: Its TGI is 57 µM.

Question: And the TGI (SF-295 CNS)?
Answer: Its TGI is over 100 µM.

Question: What about the TGI (K-562 leukemia) of the same compound?
Answer: The TGI was over 100 µM.

Question: What about the TGI (ACHN renal) of the same compound?
Answer: The TGI was over 100 µM.

Question: And the TGI (786-0 renal)?
Answer: Its TGI is over 100 µM.

Question: What about the TGI (SK-MEL-5 melanoma) of the same compound?
Answer: Its TGI is over 100 µM.

Question: And the TGI (UO-31 renal)?
Answer: The TGI was over 100 µM.

Question: And the TGI (SNB-19 CNS)?
Answer: Its TGI is 56.7 µM.

Question: And the TGI (M14 melanoma)?
Answer: The TGI was over 100 µM.

Question: What about the TGI (BT-549 breast) of the same compound?
Answer: Its TGI is over 100 µM.

Question: What about the TGI (HOP-62 NSCLC) of the same compound?
Answer: The TGI was 35.8 µM.

Question: What about the TGI (IGROV1 ovarian) of the same compound?
Answer: The TGI was over 100 µM.

Question: And the TGI (COLO 205 colon)?
Answer: Its TGI is over 100 µM.

Question: And the TGI (MDA-N)?
Answer: The TGI was over 100 µM.

Question: What about the TGI (UACC-257 melanoma) of the same compound?
Answer: The TGI was over 100 µM.

Question: And the TGI (HCT-15 colon)?
Answer: Its TGI is over 100 µM.

Question: And the TGI (MDA-MB-435)?
Answer: Its TGI is over 100 µM.

Question: What about the TGI (HS 578T breast) of the same compound?
Answer: Its TGI is 86.6 µM.

Question: And the TGI (SF-268 CNS)?
Answer: The TGI was over 100 µM.

Question: What about the TGI (UACC-62 melanoma) of the same compound?
Answer: Its TGI is over 100 µM.
